Assay results: patent publication US8920819B2, “Delivery of hydrophilic drugs” (University College London, priority 2009, dated 2014)

Assays:
CD-1 mice [1] = assay: Antinociception, tail flick warm water bioassay, oral administration; format: in vivo, ICR (CD-1) male out bred mice; conditions: 70 mg Kg^-1 Leucine[5]-Enkephalin (L, LG) or 100 mg Kg^-1 TPLENK (PG), out of 16 mice
Procedure: (§1) ICR (CD-1) male out bred mice (22-28 g, 4-5 weeks old, Harlan, Oxon, UK) were used. The animals were housed in groups of 5 in plastic cages in controlled laboratory conditions with ambient temperature and humidity maintained at ˜22° C. and 60% with a 12-hour light and dark cycle (lights on at 8:00 and off at 20:00). Food and water were available ad libitum and the animals acclimatised for 5-7 days, prior to any experiments, in the Animal House, School of Pharmacy, University of London (London, UK). Animals were fasted overnight for oral delivery experiments. Animals were only used once and were acclimatised at the testing environment for at least 20 hours prior to testing. […]
Double de-ionised filtered (0.2 μm, 33 mm Millex GP syringe driven filter unit, PES membrane for sterilisation of aqueous solutions) water was used as the disperse phase. […] The administered volume was adjusted based on HPLC quantification of LENK and TPLENK and the body weight of each animal. […]
Antinociception was assessed in mice using the tail flick warm water bioassay (D'Amour and Smith 1941; Mogil et al. 1999). […] The response latency times, in centiseconds, recorded for each mouse to withdraw its tail by a “sharp flick” were recorded using a digital stopwatch capable of measuring 1/100th of a second. […] Briefly, percent antinociception was calculated as 100% ×(test latency-baseline latency)/(10 seconds−baseline latency). […]

CD-1 mice [2] = assay: Antinociception, tail flick warm water bioassay, intravenous administration; format: in vivo, ICR (CD-1) male out bred mice; conditions: 14 mg Kg^-1 Leucine[5]-Enkephalin (L, LG) or 20 mg Kg^-1 TPLENK (PG), out of 8 mice
Procedure: as §1, with “60% respectively” for “60%”, “were” for “were fasted overnight for oral delivery experiments. Animals were”, “acclimatised in” for “acclimatised at”
Sodium Chloride 0.9% (pH 7.4) was used as the disperse phase. […] The administered volume was adjusted based on HPLC quantification of Leucine^[5]-Enkephalin and TPLENK and the body weight of each animal. […]
Antinociception was assessed in mice using the tail flick warm water bioassay (D'Amour and Smith 1941; Mogil et al. 1999). […] The response latency times, in centiseconds, recorded for each mouse to withdraw its tail by a “sharp flick” were recorded using a digital stopwatch capable of measuring 1/100th of a second. […] Mice not responding within 5 sec were excluded from further testing (Baseline cut-off=5 seconds) and the baseline latency was measured for all mice 2 hours prior testing. […]
All results were expressed as mean±standard error (i.e. SE: SD/√n). […]

[3] = Pharmacokinetics after oral administration; plasma and brain Leucine[5]-Enkephalin by radioimmunoassay; format: in vivo, ICR (CD-1) male out bred mice; conditions: mice
Procedure: ICR (CD-1) male out bred mice (18-24 g, 4 weeks old, Harlan, Oxon, UK) were used. The animals were housed in groups of 5 in plastic cages in controlled laboratory conditions with ambient temperature and humidity maintained at ˜22° C. and 60% with a 12-hour light and dark cycle (lights on at 7:00 and off at 19:00). Food and water were available ad libitum and the animals acclimatised for 5-7 days prior to any experiments in the Animal House, School of Pharmacy, University of London (London, UK). Animals were fasted overnight for oral delivery experiments. Animals were only used once and were acclimatised at the testing environment for at least 1 hour prior to testing.
Syringes were attached to 19-20G commercial gavage needles (2-3 cm long) for oral administration.
Double de-ionised filtered (0.2 μm, 33 mm Millex GP syringe driven filter unit, PES membrane for sterilisation of aqueous solutions) water was used as the disperse phase for the oral formulations. […] All formulations were prepared by vortexing (WhirliMixer, Fisherbrand) and then by probe sonication (MSE Soniprep 150) with the instrument set at 50% of its maximum output for 15 minutes on ice. The formulations were left overnight in the fridge; the administered volume was set to a maximum of 0.2 ml per mouse. The administered volume was adjusted based on the HPLC quantification of LENK and TPLENK and the body weight of each animal. The maximum volume was dosed for placebo (H2O) receiving mice.
Blood samples (0.4-0.8 mls per mouse) were collected into a chilled syringe and transferred into evacuated sterile spray coated (with tripotassium ethylenediamine tetraacetic acid—3.6 mg) medical grade PET tubes (3×75 mm K3E Vacutainer©, BD Biosciences, UK) and maintained on ice (4° C.) until centrifugation. There is no dilution effect in spray coated tubes. Plasma was obtained as the supernatant after centrifugation of blood samples at 1,600 g or 4800 rpm for 15 minutes at 4° C. with a Hermle Z323 centrifuge (Hermle Laborteschink GmbH, Germany) and was pipetted into 1.5 mL centrifuge tubes and stored at −70° C. for later use.
Brain tissue minus the cerebellum (0.25-0.35 g) recovered from mice was immediately frozen in liquid nitrogen (−80° C.) until they were homogenised. The brain weight was recorded for each individual animal. After thawing tissues were boiled for 10 minutes in 30 volumes of a mixture of 1M of acetic acid, 0.02M of hydrochloric acid and 0.1% 2-mercaptoethanol (De Ceballos et al. 1991; Ahmed et al. 1994; Wu et al. 2005). The tissues were homogenised with 80 strokes per minute for half a minute with a glass 3 mL homogeniser (Jencons-PLS, England). […]

[4] = HPLC quantification of the peptide content of the formulations; format: physicochemical; conditions: formulations for oral administration, not filtered
Description: Formulations were not filtered.
The formulations were left overnight in the fridge and prior to intravenous administration were filtered (0.8 μm, 13 mm, Acrodisc Syringe Filter, Super Low Protein Binding Non-Pyrogenic Membrane, PALL Life Sciences). A clear filtrate was obtained for Leucine^[5]-Enkephalin and Leucine^[5]-Enkephalin and GCPQ and a translucent liquid was obtained for Palmitoylated Leucine^[5]-Enkephalin (TPLENK) and GCPQ. The administered intravenous volume of the formulations was set to a maximum of 0.2 ml per mouse. […] The maximum volume was dosed for placebo (NaCl, 0.9% w/v) receiving mice.
Polymer dispersions with Leucine^[5]-Enkephalin (LENK) or Palmitoylated Leucine^[5]-Enkephalin (TPLENK) were dissolved in mobile phase and analysed by HPLC. Samples were chromatographed over a reverse phase HPLC Sunfire C18 column (5 μm, 4.6 mm×250 mm) with a guard column attached [Waters Sunfire C18 (5 μm, 4.6 mm×10 mm)], using a Waters™ 515 HPLC pump connected to a Water™ 717 plus Autosampler with a Waters™ 486 Tunable Absorbance Detector. The mobile phase consisted of 82% 50 mM acetate buffer and 18% acetonitrile (pH 5.8). Unless otherwise indicated, samples were detected at 280 nm. The flow rate was set at 1 mL min^−1 at 35° C. and an injection volume of 40 μL was used. […] Empower software I was used for data analysis. […]

Q: For `CC(C)C[C@H](NC(=O)[C@H](Cc1ccccc1)NC(=O)CNC(=O)CNC(=O)[C@@H](N)Cc1ccc(O)cc1)C(=O)O` [L, Leucine^[5]-Enkephalin], which “analgesic responders (response 2 or more times the baseline latency)” value (CD-1 mice [1]) is on record?
A: 31.25%

Q: What about the “mice reaching maximal possible latencies” value (CD-1 mice [1]; cut-off 10 seconds) of the same compound?
A: 6.25%

Q: And the “analgesic responders (response 2 or more times the baseline latency)” value (CD-1 mice [2])?
A: 37.5%

Q: What about the “mice reaching maximal possible latencies” value (CD-1 mice [2]; cut-off 10 seconds) of the same compound?
A: 0%

Q: What about the “time of peak Leucine[5]-Enkephalin concentration in the brain tissue” value ([3]; 70 mg Kg^-1 Leucine[5]-Enkephalin (L, LG) or 100 mg Kg^-1 TPLENK (PG), brain) of the same compound?
A: 4 h

Q: What about the “peak Leucine[5]-Enkephalin concentration in the brain tissue” value ([3]; 70 mg Kg^-1 Leucine[5]-Enkephalin (L, LG) or 100 mg Kg^-1 TPLENK (PG), brain, at 4 hours) of the same compound?
A: 0.695 ng/g

Q: And the “peak plasma concentration of Leucine[5]-Enkephalin” value ([3]; 70 mg Kg^-1 Leucine[5]-Enkephalin (L, LG) or 100 mg Kg^-1 TPLENK (PG), plasma)?
A: 29.3 ng 10^−1mL^−1

Q: And the Tmax ([3]; male, ICR (CD-1), mouse, 70 mg Kg^-1 Leucine[5]-Enkephalin, plasma, read-out: time of peak plasma concentration of Leucine[5]-Enkephalin)?
A: 1 h

Q: What about the “peptide content of the formulations (HPLC)” value [4] of the same compound?
A: 99.9%
